This note sets out measurements from US20220324835A1 (Nurix Therapeutics, Inc., priority 2018, published 2022).

Assay [1] relates to T-cell. The assay can be described thus: CD25 cell surface staining on T-cells stimulated with anti-CD3 antibody alone (Biological Example 2). The format is cell-based, human. The following applies: Homo sapiens, T-cell; 1 μM Cbl-b inhibitor; fold change over baseline (anti-CD3/anti-CD28 stimulated T-cells without inhibitor); read-out: CD25 staining Anti-CD3 stimulation.
For assay [2], the system named is T-cell. The assay can be described thus: CD25 cell surface staining on T-cells co-stimulated with anti-CD3 and anti-CD28 antibody (Biological Example 2). The format is cell-based, human. The following applies: Homo sapiens, T-cell, fold change over baseline (anti-CD3/anti-CD28 stimulated T-cells without inhibitor), read-out: CD25 staining Anti-CD3/Anti-CD28 stimulation; for fold induction at 0.3 µM: 0.3 μM Cbl-b inhibitor; for fold induction at 1 µM: 1 μM Cbl-b inhibitor. The method in brief: (§1)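 No assay protocol given; T-cells stimulated with anti-CD3 alone or anti-CD3 plus anti-CD28, with or without Cbl-b inhibitor. Activation read as IL-2 secretion or CD25 surface staining, expressed as fold over baseline from uninhibited cells […].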

In assay [3] the target is T1, Cbl-b (Homo sapiens, UniProt Q13191). The assay can be described thus: Cbl-b inhibition assay (Cbl-b activity assay, FRET, Biological Example 1; 100 mM NaCl, 60 nM Src kinase). As to conditions: upper bound stated in text lists; read-out: IC50 values in the Cbl-b inhibition assay of Biological Example 1. Type of assay: biochemical. The method in brief: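 Inhibitor activity is measured as reduced terbium-to-fluorescein FRET between streptavidin-terbium on biotinylated Cbl-b and Bodipy-fluorescein ubiquitin carried by an irreversible UbcH5B-Ub conjugate, binding of which depends on Src phosphorylation of Cbl-b.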
T1 sequence (Q13191 36-427): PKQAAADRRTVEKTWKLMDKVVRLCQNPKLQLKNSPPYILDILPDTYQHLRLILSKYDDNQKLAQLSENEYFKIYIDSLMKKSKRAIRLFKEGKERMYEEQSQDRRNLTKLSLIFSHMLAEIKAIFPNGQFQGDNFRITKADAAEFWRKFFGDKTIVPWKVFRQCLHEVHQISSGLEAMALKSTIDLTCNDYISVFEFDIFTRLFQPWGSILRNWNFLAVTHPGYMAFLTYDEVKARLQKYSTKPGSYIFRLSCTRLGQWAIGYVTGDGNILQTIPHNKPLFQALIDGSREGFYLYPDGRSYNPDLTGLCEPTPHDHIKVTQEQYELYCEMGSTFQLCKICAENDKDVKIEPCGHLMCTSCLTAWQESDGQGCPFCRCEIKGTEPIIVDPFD

Assay [4] deals with T-cell. The assay can be described thus: IL-2 secretion from T-cells stimulated with anti-CD3 antibody alone (Biological Example 2). The format is cell-based, human. The following applies: Homo sapiens, T-cell; 1 μM Cbl-b inhibitor; fold change over baseline (anti-CD3/anti-CD28 stimulated T-cells without inhibitor); read-out: IL-2 secretion Anti-CD3 stimulation.
In assay [5] the test system is T-cell. The assay can be described thus: IL-2 secretion from T-cells co-stimulated with anti-CD3 and anti-CD28 antibody (Biological Example 2). Type of assay: cell-based, human. The following applies: Homo sapiens, T-cell, fold change over baseline (anti-CD3/anti-CD28 stimulated T-cells without inhibitor), read-out: IL-2 secretion Anti-CD3/Anti-CD28 stimulation; for fold induction at 0.3 µM: 0.3 μM Cbl-b inhibitor; for fold induction at 1 µM: 1 μM Cbl-b inhibitor. The procedure, abridged:
as §1

Assay [6] deals with T1, Cbl-b. Description: Cbl-b activity assay (Cbl-b inhibition assay), TR-FRET of Cbl-b interaction with UbcH5B-Ub. Type of assay: biochemical. The following applies: assay buffer with 100 mM NaCl, 60 nM Src kinase; read-out: Cbl-b activity IC50. The procedure, abridged: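 TR-FRET readout of Cbl-b binding to Bodipy-fluorescein N-terminally labeled Ub conjugated to UbcH5B C85K, measured with compound present. After compound incubation, 60 nM Src kinase with 1 mM ATP and 5 mM MgCl2 (final) was added for 1.5 h, then a further 1 h incubation; asterisked values used 50 mM NaCl buffer and 30 nM Src.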
Background: TR-FRET usually uses a lanthanide donor and a delayed reading to cut background.

In the case of `Cn1cnnc1CC1(c2cccc(N3Cc4c(cc(N5CCNC6(CC6)C5)cc4C(F)(F)F)C3=O)c2)COC1` [Example 582, 2-(3-(3-((4-Methyl-4H-1,2,4-triazol-3-yl)methyl)oxetan-3-yl)phenyl)-6-(4,7-diazaspiro[2.5]octan-7-yl)-4-(trifluoromethyl)isoindolin-1-one], the fold induction at 1 µM in assay [1] was greater than 1; in assay [2], 1.31 to 1.5; in assay [4], 0.101 to 0.15; in assay [5] it was greater than 7.5. The figures for the fold induction at 0.3 µM in assay [2] and in assay [5] were 1.31 to 1.5 and greater than 7.5, respectively. The half-maximal inhibitory concentration (IC50) was no more than 100 nM in assay [3] and less than 100 nM in assay [6].
As for `CN1CCN(c2cc3c(c(C(F)(F)F)c2)CN(c2cccc(C4(Cc5nncn5C)COC4)c2)C3=O)CC12CC2` [Example 583, 2-(3-(3-((4-Methyl-4H-1,2,4-triazol-3-yl)methyl)oxetan-3-yl)phenyl)-6-(4-methyl-4,7-diazaspiro[2.5]octan-7-yl)-4-(trifluoromethyl)isoindolin-1-one], the fold induction at 1 µM in assay [1] was greater than 1; in assay [2] it was 1.51 to 1.75; in assay [4] it was 0.151 to 0.2; in assay [5] it was 5 to 7.5. In addition, the fold induction at 0.3 µM fell in the range of 1.31 to 1.5 in assay [2] and 2.51 to 5 in assay [5]. For the same compound, the IC50 was no more than 100 nM in assay [3] and less than 100 nM in assay [6].
`CC(c1cc2c(c(C3CC3)n1)CN(c1cccc(C3(Cc4nncn4C)COC3)c1)C2=O)N1CCCC1` (stereo not drawn) [Example 584, 4-Cyclopropyl-2-(3-(3-((4-methyl-4H-1,2,4-triazol-3-yl)methyl)oxetan-3-yl)phenyl)-6-(l-(pyrrolidin-1-yl)ethyl)-2,3-dihydro-1H-pyrrolo[3,4-c]pyridin-1-one]: the fold induction at 1 µM in assay [1] was 0.601 to 0.8; in assay [2], 1.01 to 1.3; in assay [4] it was less than 0.05; in assay [5], 2.51 to 5. The fold induction at 0.3 µM in assay [2] was 1.01 to 1.3; in assay [5], 1.01 to 2.5. Besides, the IC50 was no more than 100 nM in assay [3] and less than 100 nM in assay [6].
On to `CC(c1cc2c(c(C3CC3)n1)CN(c1cccc(C3(Cc4nncn4C)COC3)c1)C2=O)N1CCC2(CC2)C1` (stereo not shown) [Example 585, 6-(1-(5-Azaspiro[2.4]heptan-5-yl)ethyl)-4-cyclopropyl-2-(3-(3-((4-methyl-4H-1,2,4-triazol-3-yl)methyl)oxetan-3-yl)phenyl)-2,3-dihydro-1H-pyrrolo[3,4-c]pyridin-1-one], for which the fold induction at 1 µM in assay [1] was in the range of 0.801 to 1; in assay [2] it was 1.01 to 1.3; in assay [4], 0.051 to 0.1; in assay [5] it was 5 to 7.5. Also, the fold induction at 0.3 µM in assay [2] lay in the range of 1.01 to 1.3; in assay [5], 2.51 to 5. In addition, the IC50 was no more than 100 nM in assay [3] and less than 100 nM in assay [6].
In the case of `CC(c1cc2c(c(C3CC3)n1)CN(c1cccc(C3(Cc4nncn4C)COC3)c1)C2=O)N1CC2(CC2)C1` (stereo not shown) [Example 586, 6-(1-(5-Azaspiro[2.3]hexan-5-yl)ethyl)-4-cyclopropyl-2-(3-(3-((4-methyl-4H-1,2,4-triazol-3-yl)methyl)oxetan-3-yl)phenyl)-2,3-dihydro-1H-pyrrolo[3,4-c]pyridin-1-one], the fold induction at 1 µM is 0.601 to 0.8 in assay [1], 1.01 to 1.3 in assay [2], less than 0.05 in assay [4] and 2.51 to 5 in assay [5]. Also, the results for the fold induction at 0.3 µM in assay [2] and in assay [5] were 1.01 to 1.3 and 1.01 to 2.5, respectively. For the same compound, the results for the IC50 in assay [3] and in assay [6] were no more than 100 nM and less than 100 nM, respectively.

In general, IC50 refers to the concentration that inhibits the measured activity by half.
